Measured values published in patent publication EP0387830A2, “The anthracycline substances, microorganisms producing the same and a process for preparing the substances” (YAMANOUCHI PHARMACEUTICAL CO. LTD., priority 1989, dated 1990).
Converted amounts (≈) assume the structure as drawn.

How the values were obtained:
[1] = tested on: L 1210; test: Cytotoxicity on tumor cells in vitro (trypan blue exclusion, cell growth inhibition); assay type: cell-based; details: tartrates dissolved in saline, 1 x 10⁵ cells/mℓ, 37 °C for 3 days, RPMI-1640 + 10 % new born calf serum
Procedure: (§1) To each 1 mℓ of L 1210* and P 388** culture medium in a concentration of 1 x 10⁵ cells/mℓ, 4 µℓ of each solution of the tartrates of the anthracycline compounds according to the present invention which was dissolved in saline in different concentrations was added respectively and incubated at 37 °C for 3 days in a CO₂ incubator. Then, numbers of surviving cells were counted by trypan blue exclusion. The cytotoxic activity was determined by calculating the cell growth inhibitory ratio of the numbers of surviving cells to numbers of cells of a control to which no compound was added in the different concentrations and by plotting them on a graph. Note : Medium used: * : RPMI-1640 + 10 % new born calf serum **: RPMI-1640 + 5 % fetus calf serum + 5 µM 2-hydroxyethyldisulfide

[2] = tested on: P 388; test: as above; assay type: cell-based; details: tartrates dissolved in saline, 1 x 10⁵ cells/mℓ, 37 °C for 3 days, RPMI-1640 + 5 % fetus calf serum + 5 µM 2-hydroxyethyldisulfide; for IC50: Mus musculus, P388, 72 h, read-out: IC₅₀ P388
Procedure: as §1

[3] = tested on: P-388 tumor cells; test: Antitumor activity to P388 on animal (prolongation of life); details: for Median survival days: BDFI/SLC male mice, control 13.0; for T/C: ratio of median survival days to control; for Survival rate (after 22 days): survivors - animals in group
[4] = tested on: P388 adriamycin resistant cell; test: Cytotoxicity on tumor cells in vitro (trypan blue exclusion, cell growth inhibition); assay type: cell-based; details: Mus musculus, P388, 72 h, tartrates dissolved in saline; 37 °C for 3 days; read-out: IC₅₀ P388 adriamycin resistant cell
Procedure: as §1

[5] = Solubility in solvents (physicochemical properties)

Structure (SMILES)	IC50 ([1]; Mus musculus, L1210, 72 h, read-out: IC₅₀ L1210)	IC₅₀ L1210 [1]	IC50 [2]	IC₅₀ P388 [2]	Median survival days ([3]; 0.50 × 5 mg/kg)	T/C ([3]; 0.50 × 5 mg/kg)	Survival rate (after 22 days) ([3]; 0.50 × 5 mg/kg)	Median survival days ([3]; 1.0 × 5 mg/kg)	T/C ([3]; 1.0 × 5 mg/kg)	Survival rate (after 22 days) ([3]; 1.0 × 5 mg/kg)	IC50 [4]	Solubility in solvents ([5]; in hexane)	Solubility in solvents ([5]; in methanol, ethanol, acetone, ethylacetate, benzene, toluene and chloroform)	Solubility in solvents ([5]; in water)
COc1cccc2c1C(=O)c1c(O)c3c(c(O)c1C2=O)C[C@@](O)(C(=O)CO)C[C@@H]3O[C@H]1C[C@H](N)[C@H](O)[C@H](C)O1 [adriamycin]	0.087 µg/mL	0.090 µg/mL	0.03 µg/mL	0.023 µg/mL	–	–	–	–	–	–	–	–	–	–
CO[C@@]12[C@H](COC(N)=O)C3=C(C(=O)C(C)=C(N)C3=O)N1C[C@@H]1N[C@@H]12 [mitomycin C]	–	–	–	–	22.0 days	169%	2 - 8	> 22.0 days	> 169%	8 - 8	–	–	–	–
COc1cccc2c1C(=O)c1c(cc3c(c1O)C(OC1OC(C)C(OC)C(O)C1OC)CC(C)(OC(C)=O)C3OC1OC(C)C(N(C)C)C(C)(O)C1O)C2=O (stereo not drawn) [YL-01641P-C₁]	–	–	0.18 µg/mL	–	–	–	–	–	–	–	0.33 µg/mL (≈ 0.426 µM)	insoluble	soluble	difficult to be dissolved
